Assay results reported in patent publication US10160785B2, “Antimicrobial peptides and their use for the treatment of topical infections” (priority 2015, dated 2018).
Where a SMILES comes first, the peptide text is derived from it.

Tested on: Candida albicans (Olomouc) biofilm
Assay: C. albicans biofilm, remaining metabolic activity (XTT)
Assay type: cell-based
In short: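 Candida albicans (Olomouc) biofilms grown 48 h at 37 °C in MOPS-buffered RPMI 1640 from 1×10^6 CFU inocula, then exposed 20 h to peptide at 0.39-200 μmol.l^−1. XTT/PMS staining for 90 min, A540; remaining metabolic activity expressed as percent of untreated biofilm after blank correction.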

SMILES: CCCC[C@H](NC(=O)[C@H](CC(C)C)NC(=O)[C@H](CO)NC(=O)[C@H](CO)NC(=O)[C@H](CCCC)NC(=O)[C@@H](NC(=O)CN)[C@@H](C)CC)C(=O)N[C@@H](CCCCN)C(=O)N[C@@H](CCCCN)C(=O)N[C@@H](CC(C)C)C(=O)N[C@@H](CCCCN)C(=O)N[C@@H](CCCCN)C(=O)N[C@H](C(=O)N[C@H](C(=O)N[C@@H](C)C(=O)N[C@@H](CCCCN)C(N)=O)[C@@H](C)CC)[C@@H](C)CC [V] (HELM PEPTIDE1{G.I.[Nle].S.S.L.[Nle].K.K.L.K.K.I.I.A.K.[am]}$$$$V2.0)
- Metabolic activity of C. albicans (%) (peptide concentration 6.25 μmol · l^−1, 20 hours): 106.4%
- Metabolic activity of C. albicans (%) (peptide concentration 12.5 μmol · l^−1, 20 hours): 89.5%
- Metabolic activity of C. albicans (%) (peptide concentration 25 μmol · l^−1, 20 hours): 45.0%
- Metabolic activity of C. albicans (%) (peptide concentration 50 μmol · l^−1, 20 hours): 6.9%
- Metabolic activity of C. albicans (%) (peptide concentration 100 μmol · l^−1, 20 hours): 2.4%
- Metabolic activity of C. albicans (%) (peptide concentration 200 μmol · l^−1, 20 hours): 0.4%
